Measured values taken from US8030354B2, “Substituted biphenyl GPR40 modulators” (Amgen Inc., priority 2007, dated 2011).

Legend:
GPR40 [1] = biological target: T1, GPR40 (Homo sapiens, UniProt O14842); test: Cell-based aequorin assay (CHO cells stably expressing GPR40 and aequorin); design: expressed in transfected cells; host or cells: CHO cells stably transfected with GPR40 and aequorin; details: activation of human GPR40, CHO cells, 0.01% HSA
Method in brief: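 CHO cells stably co-expressing GPR40 and aequorin, loaded with coelenterazine (1 ug/mL, 2 h, room temperature) in H/HBSS with 20 mM Hepes and 0.01% fatty acid-free HSA. Serially diluted compounds added; luminescence recorded over 20 s. EC50 from dose-response of maximum relative light units.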

GPR40 [2] = biological target: T1, GPR40; test: Inositol phosphate accumulation assay (A9_GPR40 cells); assay type: cell-based; design: expressed in transfected cells; host or cells: CHO cells stably transfected with GPR40 and aequorin; details: inositol phosphate assay, A9_GPR40 cells, 1 hour; read-out: IP3 EC50
Method in brief: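 A9 cells stably expressing GPR40 were labelled 16 h with 1 μCi/mL ^3H-inositol in inositol-free DMEM with dialysed FBS. Compounds in HBSS/10 mM LiCl with HSA were applied for 1 h at 37° C, then quenched with 20 mM formic acid. Accumulated [^3H] inositol phosphates were counted by SPA.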

T1 sequence (O14842 whole entry): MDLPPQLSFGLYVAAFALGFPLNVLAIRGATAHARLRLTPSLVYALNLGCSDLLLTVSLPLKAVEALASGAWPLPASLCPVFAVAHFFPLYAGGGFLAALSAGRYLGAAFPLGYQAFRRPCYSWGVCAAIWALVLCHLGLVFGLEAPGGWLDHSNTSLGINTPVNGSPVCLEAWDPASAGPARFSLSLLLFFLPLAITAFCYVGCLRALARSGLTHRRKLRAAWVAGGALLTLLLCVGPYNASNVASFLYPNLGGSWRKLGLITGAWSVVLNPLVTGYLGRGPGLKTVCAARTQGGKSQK

Compound COc1ccc(F)c(-c2ccc(COc3cccc(C(CC(=O)O)CC4CC4)c3F)cc2C2=CCCC2(C)C)c1 (single isomer, unassigned) [Example 84.5, (3R)-4-Cyclopropyl-3-(3-(((2-(5,5-dimethyl-1-cyclopenten-1-yl)-2′-fluoro-5′-(methyloxy)-1,1′-biphenyl-4-yl)methyl)oxy)-2-fluorophenyl)butanoic acid or (3S)-4-cyclopropyl-3-(3-(((2-(5,5-dimethyl-1-cyclopenten-1-yl)-2′-fluoro-5′-(methyloxy)-1,1′-biphenyl-4-yl)methyl)oxy)-2-fluorophenyl)butanoic acid] has an EC50 (GPR40 [1]) of 100 to 1000 nM and an EC50 (GPR40 [2]) of 10 to 100 nM.
COc1ccc(F)c(-c2ccc(COc3cccc(C(CC(=O)O)CC4CC4)c3F)cc2C2CCCCC2(C)C)c1 (single isomer, unassigned) [Example 84.6] was tested, and the EC50 (GPR40 [1]) was 100 to 1000 nM and the EC50 (GPR40 [2]) was < 10 nM.
With COc1ccc(F)c(-c2ccc(COc3cccc(C(CC(=O)O)CC4CC4)c3F)cc2C(F)C(C)(C)C)c1 (single isomer, unassigned) [Example 84.7] the EC50 (GPR40 [1]) was 10 to 100 nM and the EC50 (GPR40 [2]) was < 10 nM.
In the case of COc1cc(-c2ccc(COc3cccc(C(CC(=O)O)CC4CC4)c3F)cc2C2CCCC2(C)C)c(F)cn1 (single isomer, unassigned) [Example 84.8], the EC50 (GPR40 [1]) is reported as 100 to 1000 nM and the EC50 (GPR40 [2]) is reported as < 10 nM.
In the case of COc1cc(-c2ccc(COc3cccc(C(CC(=O)O)CC4CC4)c3F)cc2C(OC)C(C)(C)C)c(F)cn1 (single isomer, unassigned) [Example 84.9], the EC50 (GPR40 [1]) is reported as 100 to 1000 nM and the EC50 (GPR40 [2]) is reported as < 10 nM.
COc1ccc(F)c(-c2ccc(COc3cccc(C(C)(C)CC(=O)O)c3)cc2C2CCCC2(C)C)c1 (single isomer, unassigned) [Example 85.3, 3-(3-(((2-((1R)-2,2-Dimethylcyclopentyl)-2′-fluoro-5′-(methyloxy)-1,1′-biphenyl-4-yl)methyl)oxy)phenyl)-3-methylbutanoic acid or 3-(3-(((2-((1S)-2,2-dimethylcyclopentyl)-2′-fluoro-5′-(methyloxy)-1,1′-biphenyl-4-yl)methyl)oxy)phenyl)-3-methylbutanoic acid] showed an EC50 (GPR40 [1]) of 100 to 1000 nM and an EC50 (GPR40 [2]) of 10 to 100 nM.
COc1cc(-c2ccc(COc3cccc(C(C)(C)CC(=O)O)c3)cc2C2CCCC2(C)C)c(F)cn1 (single isomer, unassigned) [Example 85.4, 3-{3-[3-((S)-2,2-Dimethyl-cyclopentyl)-4-(5-fluoro-2-methoxy-pyridin-4-yl)-benzyloxy]-phenyl}-3-methyl-butyric acid or 3-{3-[3-((R)-2,2-dimethyl-cyclopentyl)-4-(5-fluoro-2-methoxy-pyridin-4-yl)-benzyloxy]-phenyl}-3-methyl-butyric acid] was tested, and the EC50 (GPR40 [1]) was 100 to 1000 nM and the EC50 (GPR40 [2]) was 10 to 100 nM.
Work on COc1cc(-c2cc(F)c(COc3cccc(C(C)(C)CC(=O)O)c3)cc2C2CCCC2(C)C)c(F)cn1 (single isomer, unassigned) [Example 85.5, 3-(3-(((5-((1S)-2,2-Dimethylcyclopentyl)-2-fluoro-4-(5-fluoro-2-(methyloxy)-4-pyridinyl)phenyl)methyl)oxy)phenyl)-3-methylbutanoic acid or 3-(3-(((5-((1R)-2,2-dimethylcyclopentyl)-2-fluoro-4-(5-fluoro-2-(methyloxy)-4-pyridinyl)phenyl)methyl)oxy)phenyl)-3-methylbutanoic acid] yielded an EC50 (GPR40 [1]) of 100 to 1000 nM and an EC50 (GPR40 [2]) of 10 to 100 nM.
For COc1cc(-c2ccc(COc3cccc(C(C)(C)CC(=O)O)c3)cc2C(OC)C(C)(C)C)c(F)cn1 (single isomer, unassigned) [Example 85.6, 3-(3-(((3-((1S)-2,2-Dimethyl-1-(methyloxy)propyl)-4-(5-fluoro-2-(methyloxy)-4-pyridinyl)phenyl)methyl)oxy)phenyl)-3-methylbutanoic acid or 3-(3-(((3-((1R)-2,2-dimethyl-1-(methyloxy)propyl)-4-(5-fluoro-2-(methyloxy)-4-pyridinyl)phenyl)methyl)oxy)phenyl)-3-methylbutanoic acid], the EC50 (GPR40 [1]) was 100 to 1000 nM and the EC50 (GPR40 [2]) was 10 to 100 nM.
Compound CCC(CC(=O)O)c1ccc(F)c(OCc2ccc(-c3cc(OC)ccc3F)c(C3=CCCC3(C)C)c2)c1 (single isomer, unassigned) [Example 86.1, (3R)-3-(3-(((2-(5,5-Dimethyl-1-cyclopenten-1-yl)-2′-fluoro-5′-(methyloxy)-1,1′-biphenyl-4-yl)methyl)oxy)-4-fluorophenyl)pentanoic acid or (3S)-3-(3-(((2-(5,5-dimethyl-1-cyclopenten-1-yl)-2′-fluoro-5′-(methyloxy)-1,1′-biphenyl-4-yl)methyl)oxy)-4-fluorophenyl)pentanoic acid] has an EC50 (GPR40 [1]) of 100 to 1000 nM and an EC50 (GPR40 [2]) of 100 to 1000 nM.
For CC[C@H](CC(=O)O)c1ccc(C)c(OCc2ccc(-c3cc(OC)ccc3F)c(C(C)(C)C)c2)c1 (single isomer, unassigned) [Example 87], the EC50 (GPR40 [1]) was 100 to 1000 nM and the EC50 (GPR40 [2]) was 100 to 1000 nM.
CCC(CC(=O)O)c1cc(F)cc(OCc2ccc(-c3cc(OC)ccc3F)c(C3CCCC3(C)C)c2)c1 (single isomer, unassigned) [Example 88.1] was tested, and the EC50 (GPR40 [1]) was 10 to 100 nM and the EC50 (GPR40 [2]) was < 10 nM.
For CCC(CC(=O)O)c1cc(F)cc(OCc2ccc(-c3cc(OC)ccc3F)c(C3=CCCC3(C)C)c2)c1 (single isomer, unassigned) [Example 88.2, (3R)-3-(3-(((2-(5,5-Dimethyl-1-cyclopenten-1-yl)-2′-fluoro-5′-(methyloxy)-1,1′-biphenyl-4-yl)methyl)oxy)-5-fluorophenyl)pentanoic acid or (3S)-3-(3-(((2-(5,5-dimethyl-1-cyclopenten-1-yl)-2′-fluoro-5′-(methyloxy)-1,1′-biphenyl-4-yl)methyl)oxy)-5-fluorophenyl)pentanoic acid], the EC50 (GPR40 [1]) was 100 to 1000 nM and the EC50 (GPR40 [2]) was 10 to 100 nM.
In the case of CCC(CC(=O)O)c1cc(F)cc(OCc2cc(C3CCCC3(C)C)c(-c3cc(OC)ccc3F)cc2F)c1 (single isomer, unassigned) [Example 88.3], the EC50 (GPR40 [1]) is reported as 100 to 1000 nM and the EC50 (GPR40 [2]) is reported as < 10 nM.
In the case of CCC(CC(=O)O)c1cc(F)cc(OCc2ccc(-c3cc(OC)ncc3F)c(C3CCCC3(C)C)c2)c1 (single isomer, unassigned) [Example 88.4], the EC50 (GPR40 [1]) is reported as 100 to 1000 nM and the EC50 (GPR40 [2]) is reported as < 10 nM.
With COc1ccc(F)c(-c2ccc(COc3cc(F)cc(C(CC(=O)O)CC4CC4)c3)cc2C2CCCC2(C)C)c1 (single isomer, unassigned) [Example 89.1] the EC50 (GPR40 [1]) was 10 to 100 nM and the EC50 (GPR40 [2]) was < 10 nM.
Compound COc1ccc(F)c(-c2ccc(COc3cc(F)cc(C(CC(=O)O)CC4CC4)c3)cc2C2=CCCC2(C)C)c1 (single isomer, unassigned) [Example 89.2, (3R)-4-Cyclopropyl-3-(3-(((2-(5,5-dimethyl-1-cyclopenten-1-yl)-2′-fluoro-5′-(methyloxy)-1,1′-biphenyl-4-yl)methyl)oxy)-5-fluorophenyl)butanoic acid or (3S)-4-cyclopropyl-3-(3-(((2-(5,5-dimethyl-1-cyclopenten-1-yl)-2′-fluoro-5′-(methyloxy)-1,1′-biphenyl-4-yl)methyl)oxy)-5-fluorophenyl)butanoic acid] has an EC50 (GPR40 [1]) of 100 to 1000 nM and an EC50 (GPR40 [2]) of 10 to 100 nM.
In the case of COc1ccc(F)c(-c2cc(F)c(COc3cc(F)cc(C(CC(=O)O)CC4CC4)c3)cc2C2CCCC2(C)C)c1 (single isomer, unassigned) [Example 89.3], the EC50 (GPR40 [1]) is reported as 100 to 1000 nM and the EC50 (GPR40 [2]) is reported as < 10 nM.
COc1cc(-c2ccc(COc3cc(F)cc(C(CC(=O)O)CC4CC4)c3)cc2C2CCCC2(C)C)c(F)cn1 (single isomer, unassigned) [Example 89.4] was tested, and the EC50 (GPR40 [1]) was 100 to 1000 nM and the EC50 (GPR40 [2]) was < 10 nM.
In the case of CCC(CC(=O)O)c1cc(F)cc(OCc2ccc(-c3cc(OC)ccc3F)c(C3=CCCC3(C)C)c2)c1F (single isomer, unassigned) [Example 90.1, (3R)-3-(3-(((2-(5,5-Dimethyl-1-cyclopenten-1-yl)-2′-fluoro-5′-(methyloxy)-1,1′-biphenyl-4-yl)methyl)oxy)-2,5-difluorophenyl)pentanoic acid or (3S)-3-(3-(((2-(5,5-dimethyl-1-cyclopenten-1-yl)-2′-fluoro-5′-(methyloxy)-1,1′-biphenyl-4-yl)methyl)oxy)-2,5-difluorophenyl)pentanoic acid], the EC50 (GPR40 [1]) is reported as 100 to 1000 nM and the EC50 (GPR40 [2]) is reported as 10 to 100 nM.
CCC(CC(=O)O)c1cc(F)cc(OCc2ccc(-c3cc(OC)ccc3F)c(C3CCCC3(C)C)c2)c1F (single isomer, unassigned) [Example 90.2] was tested, and the EC50 (GPR40 [1]) was 100 to 1000 nM and the EC50 (GPR40 [2]) was < 10 nM.
With CCC(CC(=O)O)c1cc(F)cc(OCc2ccc(-c3cc(OC)ncc3F)c(C3CCCC3(C)C)c2)c1F (single isomer, unassigned) [Example 90.3] the EC50 (GPR40 [1]) was 100 to 1000 nM and the EC50 (GPR40 [2]) was < 10 nM.
With CCC(CC(=O)O)c1cc(OCc2ccc(-c3cc(OC)ccc3F)c(C3=CCCC3(C)C)c2)cc(C(F)(F)F)c1 (single isomer, unassigned) [Example 91, (3R)-3-(3-(((2-(5,5-Dimethyl-1-cyclopenten-1-yl)-2′-fluoro-5′-(methyloxy)-1,1′-biphenyl-4-yl)methyl)oxy)-5-(trifluoromethyl)phenyl)pentanoic acid or (3S)-3-(3-(((2-(5,5-dimethyl-1-cyclopenten-1-yl)-2′-fluoro-5′-(methyloxy)-1,1′-biphenyl-4-yl)methyl)oxy)-5-(trifluoromethyl)phenyl)pentanoic acid] the EC50 (GPR40 [1]) was 100 to 1000 nM and the EC50 (GPR40 [2]) was 10 to 100 nM.
For COc1ccc(F)c(-c2ccc(COc3cccc([C@@H](CC(=O)O)[C@@H]4C[C@H]4C)c3)cc2C(C)(C)C)c1 (single isomer, unassigned) [Example 93.1], the EC50 (GPR40 [1]) was 100 to 1000 nM and the EC50 (GPR40 [2]) was 10 to 100 nM.
